Assay results as given in patent US20220402935A1, “HETEROCYCLIC COMPOUND” (FIMECS, INC., priority 2019, published 2022).
Counter-ions that a name gives are not always drawn.

Tests used:
[1] = molecular target: T1, human XIAP_BIR3 domain purified protein (Homo sapiens, UniProt P98170); test: XIAP binding inhibitory activity (HTRF, b-Smac ligand); conditions: for IC50: second symbol of cell, read-out: XIAP binding inhibition IC50 value
T1 construct: purchased R & D
Summary of the method: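 HTRF competition between compound and C-terminally biotinylated Smac peptide AVPIAQK for His-tagged XIAP BIR3, both diluted to 90 nM before addition, in pH 7.5 HEPES/NaCl/BSA/Triton buffer. Eu-cryptate anti-His and streptavidin-XL665 added, ≥4 h at room temperature in the dark; inhibition % from 665/615 nm ratio versus no-compound wells.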

IRAK-M [2] = molecular target: T2, IRAK-M (Homo sapiens, UniProt Q9Y616); test: In vitro degradation activity of target protein (IRAK-M ELISA in THP1 cells); assay type: cell-based; set-up: host or cells: THP1 cells; conditions: 24 hours, second symbol of cell, read-out: IRAK-M 50% degradation concentration (DC50 value)
T2 sequence (Q9Y616 1-596): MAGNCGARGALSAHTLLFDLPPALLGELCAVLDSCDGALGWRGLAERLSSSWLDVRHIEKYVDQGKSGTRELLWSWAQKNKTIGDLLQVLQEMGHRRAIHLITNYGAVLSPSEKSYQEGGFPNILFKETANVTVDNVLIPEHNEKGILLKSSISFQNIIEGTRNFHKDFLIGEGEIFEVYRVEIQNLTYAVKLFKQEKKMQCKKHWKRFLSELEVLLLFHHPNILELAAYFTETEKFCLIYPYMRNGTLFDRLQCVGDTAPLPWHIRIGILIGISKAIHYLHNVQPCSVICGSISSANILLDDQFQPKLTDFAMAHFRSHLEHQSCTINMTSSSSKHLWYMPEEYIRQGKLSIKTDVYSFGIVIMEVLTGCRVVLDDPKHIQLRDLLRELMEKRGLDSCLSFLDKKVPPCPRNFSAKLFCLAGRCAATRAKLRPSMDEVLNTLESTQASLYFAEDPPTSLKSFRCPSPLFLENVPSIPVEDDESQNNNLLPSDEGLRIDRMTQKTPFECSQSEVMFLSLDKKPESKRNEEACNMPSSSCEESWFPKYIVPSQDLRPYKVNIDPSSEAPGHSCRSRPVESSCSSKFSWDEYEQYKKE
Protocol: In vitro degradation activities of target protein of the example compounds were evaluated using Enzyme-linked immuno-sorbent assay (ELISA) by the following assay steps. THP1 cells (ATCC, TIB-202) were cultured in RPMI-1640 supplemented with 10% FBS, lx sodium pyruvate, lx HEPES, D-(+)-glucose and 1% penicillin/streptomycin. THP1 cells were seeded at a density of 1×10^6 cells/well in 24-well plate and treated with DMSO control or test compound, and then incubated for 24 hours. The cells were collected and lysed on ice for 30 minutes in lysis buffer (PBS containing 0.1% Triton X-100) containing a protease inhibitor cocktail (Roche, Cat #11836170001). The lysates were sonicated for 30 sec ON/30 sec OFF for ten cycles and centrifuged for 10 minutes at 13k rpm at 4° C. Protein concentrations were determined by the BCA assay (Sigma, Cat #QPBCA-1KT). The ELISA assay was performed using the Human IRAK3/IRAKM/IRAK-M ELISA Kit (LifeSpan BioSciences, Cat #LS-F35271), and the protein levels of IRAK-M were evaluated according to the kit protocol. As to the IRAK-M degradation rate of test compounds, protein degradation rate (%) when the concentration of the test compound is […] described as A≥75%, 50%≤B<75%, 25%≤C<50%, D<25%, or 50% degradation concentration (DC50 value) described as A<0.03 μM, 0.03 μM≤B<0.1 μM, 0.1 μM≤C<0.3 μM, 0.3 μM≤D<1 μM, is shown in the table below.

IRAK-M [3] = molecular target: T2, IRAK-M; test: IRAK-M binding inhibitory activity (KINOMEscan active site-dependent competitive assay); set-up: purchased Eurofins Discover X; conditions: for remaining binding at 1 µM: concentration of the test compound 1 μM, first symbol of cell, read-out: IRAK-M binding inhibition activity % Ctrl; for IC50: second symbol of cell, read-out: IRAK-M binding inhibition IC50 value
Summary of the method: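 Active site-dependent competition binding assay (KINOMEscan) against human IRAK-M. Result expressed as % Ctrl = (compound signal − positive control signal)/(DMSO signal − positive control signal) × 100, where DMSO = 100% Ctrl and control compound = 0% Ctrl.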

T1 sequence (P98170 252-356 limits assumed): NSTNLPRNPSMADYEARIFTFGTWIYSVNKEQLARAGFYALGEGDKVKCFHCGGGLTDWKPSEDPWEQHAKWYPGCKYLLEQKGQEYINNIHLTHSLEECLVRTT

Structure (SMILES)	IC50 [1]	DC50 (IRAK-M [2])	remaining binding at 1 µM (IRAK-M [3])	IC50 (IRAK-M [3])	inhibition at 3 µM ([1]; concentration of the test compound 3 μM, first symbol of cell, read-out: XIAP binding inhibition rate)
CN[C@@H](C)C(=O)N[C@H](C(=O)N1CCN(C(=O)c2c(F)c3cc(F)ccc3n2CC(=O)N(C)CCOCCOCCOCCOc2cc(CN3CCC(Oc4ccnc5ccsc45)CC3)on2)CC1)C1CCCCC1 [Example 36, (S)-N-((S)-1-cyclohexyl-2-(4-(3,5-difluoro-1-(3-methyl-2-oxo-14-((5-((4-(thieno[3,2-b]pyridin-7-yloxy)piperidin-1-yl)methyl)isoxazol-3-yl)oxy)-6,9,12-trioxa-3-azatetradecyl)-1H-indole-2-carbonyl)piperazin-1-yl)-2-oxoethyl)-2-(methylamino)propanamide]	3000 to 30000 nM	300 to 1000 nM	25 to 50%	–	–
CN[C@@H](C)C(=O)N[C@H](C(=O)N1CCN(C(=O)c2cc3cc(F)c(F)cc3n2CCOCCOCCOCCOc2cc(CN3CCC(Oc4ccnc5ccsc45)CC3)on2)CC1)C1CCCCC1 [Example 29, (S)-N-((S)-1-cyclohexyl-2-(4-(5,6-difluoro-1-(2-(2-(2-(2-((5-((4-(thieno[3,2-b]pyridin-7-yloxy)piperidin-1-yl)methyl)isoxazol-3-yl)oxy)ethoxy)ethoxy)ethoxy)ethyl)-1H-indole-2-carbonyl)piperazin-1-yl)-2-oxoethyl)-2-(methylamino)propanamide]	3000 to 30000 nM	300 to 1000 nM	< 25%	–	–
CN[C@@H](C)C(=O)N[C@H](C(=O)N1CCN(C(=O)c2c(C(=O)NCCOCCOCCOc3cc(CN4CCC(Oc5ccnc6ccsc56)CC4)on3)c3cc(F)c(F)cc3n2C)[C@@H](C)C1)C1CCCCC1 [Example 12, 2-((S)-4-((S)-2-cyclohexyl-2-((S)-2-(methylamino)propanamido)acetyl)-2-methylpiperazine-1-carbonyl)-5,6-difluoro-1-methyl-N-(2-(2-(2-((5-((4-(thieno[3,2-b]pyridin-7-yloxy)piperidin-1-yl)methyl)isoxazol-3-yl)oxy)ethoxy)ethoxy)ethyl)-1H-indole-3-carboxamide]	300 to 3000 nM	100 to 300 nM	< 25%	–	–
CN[C@@H](C)C(=O)N[C@H](C(=O)N1CCN(C(=O)c2cc3cc(F)ccc3n2CC(=O)N2CCC[C@H]2COc2cc(CN3CCC(Oc4ccnc5ccsc45)CC3)on2)CC1)C1CCCCC1 [Example 26, (S)-N-((S)-1-Cyclohexyl-2-(4-(5-fluoro-1-(2-oxo-2-((S)-2-(((5-((4-(thieno[3,2-b]pyridin-7-yloxy)piperidin-1-yl)methyl)isoxazol-3-yl)oxy)methyl)pyrrolidin-1-yl)ethyl)-1H-indole-2-carbonyl)piperazin-1-yl)-2-oxoethyl)-2-(methylamino)propanamide]	3000 to 30000 nM	< 30 nM	–	300 to 1000 nM	–
CN[C@@H](C)C(=O)N[C@H](C(=O)N1CCN(C(=O)c2c(C)c3ccccc3n2CC(=O)N(C)CCOCCOCCOCCOc2cc(CN3CCC(Oc4ccnc5ccsc45)CC3)on2)CC1)C1CCCCC1 [Example 35, (S)-N-((S)-1-cyclohexyl-2-(4-(3-methyl-1-(3-methyl-2-oxo-14-((5-((4-(thieno[3,2-b]pyridin-7-yloxy)piperidin-1-yl)methyl)isoxazol-3-yl)oxy)-6,9,12-trioxa-3-azatetradecyl)-1H-indole-2-carbonyl)piperazin-1-yl)-2-oxoethyl)-2-(methylamino)propanamide]	3000 to 30000 nM	300 to 1000 nM	25 to 50%	–	–
CN[C@@H](C)C(=O)N[C@H](C(=O)N1CCN(C(=O)c2c(C)c3cc(F)ccc3n2CC(=O)N(C)CCOCCOCCOCCOc2cc(CN3CCC(Oc4ccnc5ccsc45)CC3)on2)CC1)C1CCCCC1 [Example 33, (S)-N-((S)-1-cyclohexyl-2-(4-(5-fluoro-3-methyl-1-(3-methyl-2-oxo-14-((5-((4-(thieno[3,2-b]pyridin-7-yloxy)piperidin-1-yl)methyl)isoxazol-3-yl)oxy)-6,9,12-trioxa-3-azatetradecyl)-1H-indole-2-carbonyl)piperazin-1-yl)-2-oxoethyl)-2-(methylamino)propanamide]	3000 to 30000 nM	300 to 1000 nM	< 25%	–	–
CN[C@@H](C)C(=O)N[C@H](C(=O)N1CCN(C(=O)c2c(C(=O)N(C)CCOCCOCCOc3cc(CN4CCC(Oc5ccnc6ccsc56)CC4)on3)c3cc(F)c(F)cc3n2C)CC1)C1CCCCC1 [Example 1, 2-(4-((S)-2-Cyclohexyl-2-((S)-2-(methylamino)propanamido)acetyl)piperazine-1-carbonyl)-5,6-difluoro-N,1-dimethyl-N-(2-(2-(2-((5-((4-(thieno[3,2-b]pyridin-7-yloxy)piperidin-1-yl)methyl)isoxazol-3-yl)oxy)ethoxy)ethoxy)ethyl)-1H-indole-3-carboxamide hydrochloride]	300 to 3000 nM	300 to 1000 nM	–	300 to 1000 nM	–
CN[C@@H](C)C(=O)N[C@H](C(=O)N1CCN(C(=O)c2cc3cc(F)c(F)cc3n2CC(=O)N2CCC[C@H]2COc2cc(CN3CCC(Oc4ccnc5ccsc45)CC3)on2)CC1)C1CCC(F)(F)CC1 [Example 48, (S)-N-((S)-2-(4-(5,6-difluoro-1-(2-oxo-2-((S)-2-(((5-((4-(thieno[3,2-b]pyridin-7-yloxy)piperidin-1-yl)methyl)isoxazol-3-yl)oxy)methyl)pyrrolidin-1-yl)ethyl)-1H-indole-2-carbonyl)piperazin-1-yl)-1-(4,4-difluorocyclohexyl)-2-oxoethyl)-2-(methylamino)propanamide]	3000 to 30000 nM	100 to 300 nM	–	–	–
CN[C@@H](C)C(=O)N[C@H](C(=O)N1CCN(C(=O)c2cc3cc(F)c(F)cc3n2CC(=O)N2CCC[C@H]2COc2cc(CN3CCC(Oc4ccnc5ccsc45)CC3)on2)[C@@H](C)C1)C1CCC(F)(F)CC1 [Example 49, (S)-N-((S)-2-((S)-4-(5,6-difluoro-1-(2-oxo-2-((S)-2-(((5-((4-(thieno[3,2-b]pyridin-7-yloxy)piperidin-1-yl)methyl)isoxazol-3-yl)oxy)methyl)pyrrolidin-1-yl)ethyl)-1H-indole-2-carbonyl)-3-methylpiperazin-1-yl)-1-(4,4-difluorocyclohexyl)-2-oxoethyl)-2-(methylamino)propanamide]	3000 to 30000 nM	30 to 100 nM	–	–	–
C[C@@H]1CN(CC(=O)N2CCN(C(=O)c3cc4cc(F)c(F)cc4n3C)C[C@H]2C)[C@@H](COCCOCCOc2cc(CN3CCC(Oc4ccnc5ccsc45)CC3)on2)CN1 [Example 20, 1-((R)-4-(5,6-difluoro-1-methyl-1H-indole-2-carbonyl)-2-methylpiperazin-1-yl)-2-((2R,5R)-5-methyl-2-((2-(2-((5-((4-(thieno[3,2-b]pyridin-7-yloxy)piperidin-1-yl)methyl)isoxazol-3-yl)oxy)ethoxy)ethoxy)methyl)piperazin-1-yl)ethan-1-one]	300 to 3000 nM	–	25 to 50%	–	–
CN[C@@H](C)C(=O)N[C@H](C(=O)N1CCN(C(=O)c2cc3cc(F)ccc3n2CC(=O)N2CCOC[C@@H]2COc2cc(CN3CCC(Oc4ccnc5ccsc45)CC3)on2)[C@@H](C)C1)C1CCCCC1 [Example 46, (S)-N-((S)-1-cyclohexyl-2-((S)-4-(5-fluoro-1-(2-oxo-2-((R)-3-(((5-((4-(thieno[3,2-b]pyridin-7-yloxy)piperidin-1-yl)methyl)isoxazol-3-yl)oxy)methyl)morpholino)ethyl)-1H-indole-2-carbonyl)-3-methylpiperazin-1-yl)-2-oxoethyl)-2-(methylamino)propanamide]	–	–	–	100 to 300 nM	> 25%
